Biological target: T1, human beta-3-adrenergic receptor (Homo sapiens, UniProt P13945)
T1 construct: Chinese hamster ovary (CHO) cells that stably express full-length human beta-3-adrenergic receptor; expressed in transfected cells
Assay: cAMP production (SPA) in CHO cells stably expressing human beta-3-adrenergic receptor, agonist activity
Format: cell-based
Conditions: cAMP production in CHO cells expressing human beta-3-adrenergic receptor; compounds binned (≦1 μM or >1 μM); read-out: Beta-3 Agonistic Activity, EC50 values
Description: The cell line is grown in 90% F12 nutrient mixture (HAM), 10% fetal bovine serum, 100 units/ml penicillin G sodium, […] streptomycin sulfate, and 2 mM L-glutamine at 37° C. in 95% air and 5% CO2. The transfected cell line is maintained with G418 (800ug/ml).
To test agonist activity, cells are exposed to test compound and then assayed for cAMP production. […] Test compounds are assayed from 10 μM to 3 nM with 3-fold serial dilutions. The control agonist, isoproterenol (10 mM stock in 1.1 mM ascorbate), is assayed by 3-fold dilution beginning at 1 μM. Following a 30-minute incubation with the test compounds, the buffer/compound mixture is removed. […] The cAMP values are then plotted to ascertain the EC50 of each compound tested.

T1 sequence (P13945 whole entry): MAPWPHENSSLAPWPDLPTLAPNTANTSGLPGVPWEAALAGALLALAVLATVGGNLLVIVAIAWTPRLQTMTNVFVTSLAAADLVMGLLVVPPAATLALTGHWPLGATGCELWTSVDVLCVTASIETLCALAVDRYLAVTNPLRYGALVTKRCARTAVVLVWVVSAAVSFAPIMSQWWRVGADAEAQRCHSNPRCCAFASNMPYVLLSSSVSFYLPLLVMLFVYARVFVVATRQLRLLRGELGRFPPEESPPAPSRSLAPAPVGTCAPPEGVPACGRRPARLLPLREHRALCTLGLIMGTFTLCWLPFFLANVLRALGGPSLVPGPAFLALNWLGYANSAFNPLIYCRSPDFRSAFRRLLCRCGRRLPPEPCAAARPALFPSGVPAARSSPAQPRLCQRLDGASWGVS

| Compound | EC50 [nM] |
| --- | --- |
| COCCc1ccc(OC[C@@H](O)CNC[C@H]2CCc3cc(-c4ccc(C(=O)O)cc4)ccc3O2)cc1 [Example 139, 4-{(2R)-2-[({(2S)-2-hydroxy-3-[4-(2-methoxyethyl)phenoxy]propyl}amino)methyl]-3,4-dihydro-2H-chromen-6-yl}benzoic acid] | ≤ 1000 |
| COC(=O)c1nc(-c2ccc3c(c2)CC[C@H](CNC[C@H](O)COc2ccccc2)O3)sc1C(C)C [Example 138] | > 1000 |
| CC(C)c1nc(-c2ccc3c(c2)CC[C@H](CNC[C@H](O)COc2ccccc2)O3)sc1C(=O)O [Example 190] | ≤ 1000 |
| O=C(O)c1ccc(-c2ccc3c(c2)CC[C@H](CNC[C@H](O)COc2ccccc2)O3)cc1NC1CCCCC1 [Example 197] | ≤ 1000 |
| COc1ccc(OCC(O)CNC[C@H]2CCc3cc(-c4ccc(C(=O)O)cc4)ccc3O2)cc1 (stereo partly drawn) [Example 230] | > 1000 |
| CCCCNc1cc(-c2ccc3c(c2)CC[C@H](CNC[C@H](O)COc2ccccc2)O3)ccc1C(=O)O [Example 195, 2-(butylamino)-4-[(2R)-2-({[(2)-2-hydroxy-3-(phenyloxy)propyl]amino}methyl)-3,4-dihydro-2H-chromen-6-yl]benzoic acid] | ≤ 1000 |
| O=C(O)c1ccc(-c2ccc3c(c2)CC[C@H](CNC[C@H](O)CSc2cccc(F)c2)O3)cc1 [Example 175] | > 1000 |
| CCN(CC)c1cc(-c2ccc3c(c2)CC[C@H](CNC[C@H](O)COc2ccccc2)O3)ccc1C(=O)O [Example 199] | ≤ 1000 |
| O=C(O)c1ccc(-c2ccc3c(c2)CC[C@H](CNC[C@H](O)COc2ccccc2)O3)cc1N1CCCCC1 [Example 202] | ≤ 1000 |
| O=C(O)c1ccc(-c2ccc3c(c2)CC[C@H](CNC[C@H](O)COc2ccccc2O)O3)cc1 [Example 164] | ≤ 1000 |
| O=C(O)c1ccc(-c2ccc3c(c2)CC[C@H](CNC[C@H](O)CSc2ccccc2F)O3)cc1 [Example 174] | ≤ 1000 |
| Cc1ccc(-c2cc(-c3ccc4c(c3)CC[C@H](CNC[C@H](O)COc3ccccc3)O4)ccc2C(=O)O)cc1 [Example 217] | ≤ 1000 |
| O=C(O)c1ccc(-c2ccc3c(c2)CC[C@H](CNC[C@H](O)COc2cccc(Cl)c2)O3)cc1 [Example 254] | ≤ 1000 |
| CCOC(=O)c1sc(-c2ccc3c(c2)CC[C@H](CNC[C@H](O)COc2ccccc2)O3)nc1-c1ccccc1 [Example 136] | > 1000 |
| COC(=O)c1ccc(-c2ccc3c(c2)CC[C@H](CNC[C@H](O)COc2cccc4[nH]c5ccccc5c24)O3)cc1 [Example 102] | > 1000 |
| Cc1cc(C)c(OCC(O)CNC[C@H]2CCc3cc(-c4ccc(C(=O)O)cc4)ccc3O2)c(C)c1 (stereo partly drawn) [Example 222] | > 1000 |
| O=C(O)c1ccc(-c2ccc3c(c2)CC[C@H](CNC[C@H](O)COc2ccccc2)O3)cc1NC1CCC1 [Example 201] | ≤ 1000 |
| O[C@@H](CNC[C@H]1CCc2cc(I)ccc2O1)COc1ccccc1 [Example 80, (2S)-1-({[(2R)-6-iodo-3,4-dihydro-2H-chromen-2-yl]methyl}amino)-3-phenoxy-2-propanol] | ≤ 1000 |
| COc1cc(-c2ccc3c(c2)CCC(CNC[C@H](O)COc2ccccc2)O3)ccc1C(=O)O (stereo in doubt) [Example 206, 4-[(2S)-2-({[(2S)-2-hydroxy-3-phenoxypropyl]amino}methyl)-3,4-dihydro-2H-chromen-6-yl]-2-methoxybenzoic acid] | ≤ 1000 |
| CCOc1cc(-c2ccc3c(c2)CC[C@H](CNC[C@H](O)COc2ccccc2)O3)ccc1C(=O)O [Example 207] | ≤ 1000 |
| O=C(O)CCc1ccc2c(c1)CC[C@H](CNC[C@H](O)COc1ccccc1Cl)O2 [Example 264, 3-[(2R)-2-({[(2S)-3-(2-chlorophenoxy)-2-hydroxypropyl]amino}methyl)-3,4-dihydro-2H-chromen-6-yl]propanoic acid] | ≤ 1000 |

| Compound | EC50 [nM] |
| --- | --- |
| O=C(O)c1ccc2cc(-c3ccc4c(c3)CC[C@H](CNC[C@H](O)COc3ccccc3)O4)ccc2c1 [Example 182] | ≤ 1000 |
| COC(=O)c1csc(-c2ccc3c(c2)CC[C@H](CNC[C@H](O)COc2ccccc2)O3)c1 [Example 132] | ≤ 1000 |
| O=C(O)c1nc(-c2ccc3c(c2)CC[C@H](CNC[C@H](O)COc2ccccc2)O3)sc1-c1ccccc1 [Example 188] | ≤ 1000 |
| Nc1cc(-c2ccc3c(c2)CC[C@H](CNC[C@H](O)COc2ccccc2)O3)ccc1C(=O)O [Example 198] | ≤ 1000 |
| COC(=O)c1cc(-c2ccc3c(c2)CC[C@H](CNC[C@H](O)COc2ccccc2)O3)cc2c1OCC2 [Example 130] | ≤ 1000 |
| CCOC(=O)c1sc(-c2ccc3c(c2)CC[C@H](CNC[C@H](O)COc2ccccc2)O3)nc1C(C)C [Example 137] | > 1000 |
| O=C(O)c1ccc(-c2ccc3c(c2)CC[C@H](CNC[C@H](O)COc2ccccc2Cl)O3)cc1 [Example 252] | ≤ 1000 |
| O=C(O)c1ccc(-c2ccc3c(c2)CCC(CNC[C@H](O)COc2ccccc2)O3)cc1-c1ccccc1 (stereo in doubt) [Example 215, 5-[(2S)-2-({[(2S)-2-hydroxy-3-phenoxypropyl]amino}methyl)-3,4-dihydro-2H-chromen-6-yl]-1,1′-biphenyl-2-carboxylic acid] | ≤ 1000 |
| O=C(O)c1ccc(-c2ccc3c(c2)CCC(CNC[C@H](O)COc2ccccc2)O3)cc1O (stereo in doubt) [Example 213, 2-hydroxy-4-[(2S)-2-({[(2S)-2-hydroxy-3-phenoxypropyl]amino}methyl)-3,4-dihydro-2H-chromen-6-yl]benzoic acid] | ≤ 1000 |
| Cc1c(-c2ccc3c(c2)CC[C@H](CNC[C@H](O)COc2ccccc2)O3)c(C(=O)O)nn1C [Example 184] | ≤ 1000 |
| CC(C)c1cccc(C(C)C)c1OC[C@@H](O)CNC[C@H]1CCc2cc(-c3ccc(C(=O)O)cc3)ccc2O1 [Example 140, 4-[(2R)-2-({[(2S)-3-(2,6-diisopropylphenoxy)-2-hydroxypropyl]amino}methyl)-3,4-dihydro-2H-chromen-6-yl]benzoic acid] | > 1000 |
| O=C(O)CCc1ccc2c(c1)CC[C@H](CNC[C@H](O)COc1ccc(Cl)cc1)O2 [Example 267] | > 1000 |
| O=C(O)c1sc(-c2ccc3c(c2)CC[C@H](CNC[C@H](O)COc2ccccc2)O3)nc1-c1ccccc1 [Example 189] | ≤ 1000 |
| O=C(O)c1cc(-c2ccc3c(c2)CC[C@H](CNC[C@H](O)COc2ccccc2)O3)cc2c1OCC2 [Example 185] | ≤ 1000 |
| O=C(O)c1ccc(-c2ccc3c(c2)CC[C@H](CNC[C@H](O)CSc2ccc(F)cc2)O3)cc1 [Example 176] | > 1000 |
| CC(C)c1ccccc1SC[C@@H](O)CNC[C@H]1CCc2cc(-c3ccc(C(=O)O)cc3)ccc2O1 [Example 171] | ≤ 1000 |
| O=C(O)c1ccc(-c2ccc3c(c2)CC[C@H](CNCC(O)COc2ccccc2-c2ccccc2)O3)cc1 (stereo partly drawn) [Example 239] | ≤ 1000 |
| O=C(O)c1ccc(-c2ccc3c(c2)CC[C@H](CNC[C@H](O)COc2ccccc2F)O3)cc1 [Example 253] | ≤ 1000 |
| CCCOc1cc(-c2ccc3c(c2)CC[C@H](CNC[C@H](O)COc2ccccc2)O3)ccc1C(=O)O [Example 208] | ≤ 1000 |
| O=C(O)c1ccc(-c2ccc3c(c2)CC[C@H](CNCC(O)COc2ccccc2Cl)O3)cc1 (stereo partly drawn) [Example 234] | ≤ 1000 |
| CCCCOc1cc(-c2ccc3c(c2)CC[C@H](CNC[C@H](O)COc2ccccc2)O3)ccc1C(=O)O [Example 212] | ≤ 1000 |
